Legend:
[1] = biological target: Sodium channel protein type 5 subunit alpha (Homo sapiens, UniProt Q14524); test: Inhibition of NaV1.5 (unknown origin)
Homo sapiens [2] = species: Homo sapiens; test: Inhibition of human chloride channel at 1 uM relative to control
Rattus norvegicus [3] = test: Free maximum concentration of drug in rat at 2 mg/kg, po; type: ADME, organism-based; set-up: dose 2 mg/kg, route oral; details: in vivo
[4] = biological target: Adenosine receptor A2a (Homo sapiens) (UniProt P29274); test: Inhibition of human adenosine A2A receptor at 1 uM relative to control
Adenosine receptor A2a (Homo sapiens), sequence (P29274 whole entry): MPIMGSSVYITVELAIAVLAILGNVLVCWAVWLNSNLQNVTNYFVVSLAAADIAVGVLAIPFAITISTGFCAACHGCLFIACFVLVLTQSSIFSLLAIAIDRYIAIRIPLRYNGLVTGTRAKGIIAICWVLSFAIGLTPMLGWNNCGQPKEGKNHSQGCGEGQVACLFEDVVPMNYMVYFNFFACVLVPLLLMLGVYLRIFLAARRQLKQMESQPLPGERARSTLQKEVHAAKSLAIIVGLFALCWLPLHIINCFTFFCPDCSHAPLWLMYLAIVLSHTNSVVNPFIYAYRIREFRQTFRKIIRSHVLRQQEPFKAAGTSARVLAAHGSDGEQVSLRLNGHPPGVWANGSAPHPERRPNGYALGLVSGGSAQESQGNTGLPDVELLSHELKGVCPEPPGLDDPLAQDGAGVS

[5] = biological target: Sodium-dependent noradrenaline transporter (Homo sapiens) (UniProt P23975); test: Inhibition of human norepinephrine transporter at 1 uM relative to control
[6] = biological target: Neuropeptide Y receptor type 1 (Homo sapiens) (UniProt P25929); test: Inhibition of human Y1 receptor at 1 uM relative to control
[7] = biological target: Galanin receptor type 2 (Homo sapiens) (UniProt O43603); test: Inhibition of human GAL2 receptor at 1 uM relative to control
Homo sapiens [8] = species: Homo sapiens; test: Inhibition of human SKCa channel at 1 uM relative to control
[9] = biological target: 5-hydroxytryptamine receptor 1B (Homo sapiens) (UniProt P28222); test: Inhibition of human 5-HT1B receptor at 1 uM relative to control
Homo sapiens [10] = species: Homo sapiens; test: Inhibition of human P2X receptor at 1 uM relative to control
[11] = biological target: 5-hydroxytryptamine receptor 7 (Homo sapiens) (UniProt P34969); test: Inhibition of human 5-HT7 receptor at 1 uM relative to control
[12] = biological target: 5-hydroxytryptamine receptor 3A (Homo sapiens) (UniProt P46098); test: Inhibition of human 5-HT3 receptor at 1 uM relative to control
5-hydroxytryptamine receptor 3A (Homo sapiens), sequence (P46098 whole entry): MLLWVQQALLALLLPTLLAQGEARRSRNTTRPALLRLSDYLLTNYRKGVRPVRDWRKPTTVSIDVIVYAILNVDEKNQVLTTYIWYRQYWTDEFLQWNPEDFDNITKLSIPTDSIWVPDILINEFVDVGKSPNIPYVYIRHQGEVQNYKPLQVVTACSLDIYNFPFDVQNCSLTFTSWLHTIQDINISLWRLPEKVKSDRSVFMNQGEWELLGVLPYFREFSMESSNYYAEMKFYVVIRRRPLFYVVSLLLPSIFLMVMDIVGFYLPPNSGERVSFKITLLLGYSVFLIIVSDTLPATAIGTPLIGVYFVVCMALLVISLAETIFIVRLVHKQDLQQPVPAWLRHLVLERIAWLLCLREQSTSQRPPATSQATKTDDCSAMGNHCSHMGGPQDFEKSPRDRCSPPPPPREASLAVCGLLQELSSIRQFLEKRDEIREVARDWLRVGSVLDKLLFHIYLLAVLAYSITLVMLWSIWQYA

[13] = Oral bioavailability in rat; type: ADME, organism-based; details: in vivo
[14] = biological target: Endothelin-1 receptor (Homo sapiens) (UniProt P25101); test: Inhibition of human ETA receptor at 1 uM relative to control
[15] = Half life in rat at 2 mg/kg, iv; type: ADME, organism-based; set-up: dose 2 mg/kg, route intravenous; details: in vivo
[16] = biological target: Kappa-type opioid receptor (Homo sapiens) (UniProt P41145); test: Inhibition of human kappa opioid receptor at 1 uM relative to control
[17] = biological target: Histamine H2 receptor (Homo sapiens) (UniProt P25021); test: Inhibition of human histamine H2 receptor at 1 uM relative to control
Rattus norvegicus [18] = test: In vivo inhibition of soluble epoxide hydrolase in rat assessed as increase in leukotoxin/leukotoxin diol ratio in plasma at 0.2 to 20 mg/kg, po measured after 4 hrs relative to vehicle-treated control; type: functional; details: dose mg/kg 0.2-20
[19] = Cmax in rat at 0.2 mg/kg, po; type: ADME, organism-based; set-up: dose 0.2 mg/kg, route oral; details: in vivo
Homo sapiens [20] = species: Homo sapiens; test: Inhibition of human BZD receptor at 1 uM relative to control
[21] = Plasma clearance in rat at 2 mg/kg, iv; type: ADME, organism-based; set-up: dose 2 mg/kg, route intravenous
[22] = biological target: 5-hydroxytryptamine receptor 5A (Homo sapiens) (UniProt P47898); test: Inhibition of human 5-HT5A receptor at 1 uM relative to control
[23] = biological target: Adenosine receptor A1 (Homo sapiens) (UniProt P30542); test: Inhibition of human adenosine A1 receptor at 1 uM relative to control
Adenosine receptor A1 (Homo sapiens), sequence (P30542 whole entry): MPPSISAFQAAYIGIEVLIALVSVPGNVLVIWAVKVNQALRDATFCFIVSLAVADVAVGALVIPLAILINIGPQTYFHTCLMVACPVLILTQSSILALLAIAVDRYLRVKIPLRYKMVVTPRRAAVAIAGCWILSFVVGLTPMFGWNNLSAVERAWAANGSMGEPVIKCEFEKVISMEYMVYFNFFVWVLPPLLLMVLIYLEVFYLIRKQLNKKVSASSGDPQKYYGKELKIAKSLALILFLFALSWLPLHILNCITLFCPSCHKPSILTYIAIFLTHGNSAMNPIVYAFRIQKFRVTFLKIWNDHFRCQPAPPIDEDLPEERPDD

[24] = biological target: C-X-C chemokine receptor type 2 (Homo sapiens) (UniProt P25025); test: Inhibition of human CXCR2 receptor at 1 uM relative to control
[25] = biological target: Mu-type opioid receptor (Homo sapiens) (UniProt P35372); test: Inhibition of human mu opioid receptor at 1 uM relative to control
Mu-type opioid receptor (Homo sapiens), sequence (P35372 whole entry): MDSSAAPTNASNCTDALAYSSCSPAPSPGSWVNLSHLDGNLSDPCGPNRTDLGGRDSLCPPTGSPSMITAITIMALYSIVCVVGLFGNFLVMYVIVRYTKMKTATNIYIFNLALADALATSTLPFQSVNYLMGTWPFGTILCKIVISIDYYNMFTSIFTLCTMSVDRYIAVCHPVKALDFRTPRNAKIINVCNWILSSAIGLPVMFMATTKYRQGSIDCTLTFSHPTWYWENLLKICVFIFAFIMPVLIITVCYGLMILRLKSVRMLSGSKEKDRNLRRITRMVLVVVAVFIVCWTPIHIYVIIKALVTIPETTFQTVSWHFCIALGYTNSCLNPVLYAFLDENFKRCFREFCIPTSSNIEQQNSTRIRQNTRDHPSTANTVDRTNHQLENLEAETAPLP

[26] = biological target: Vasopressin V1a receptor (Homo sapiens) (UniProt P37288); test: Inhibition of human vasopressin V1a receptor at 1 uM relative to control
Cytochrome P450 2C8 = Cytochrome P450 2C8 (Homo sapiens, UniProt P10632); test: Inhibition of CYP2C8 (unknown origin); type: ADME
Epoxide hydrolase 1 = Epoxide hydrolase 1 (Homo sapiens, UniProt P07099)
[27] = biological target: Voltage-dependent L-type calcium channel subunit alpha-1C (Homo sapiens, UniProt Q13936); test: Inhibition of CaV1.2 (unknown origin)
[28] = biological target: Histamine H1 receptor (Homo sapiens) (UniProt P35367); test: Inhibition of human histamine H1 receptor at 1 uM relative to control
[29] = Volume of distribution at steady state in rat at 2 mg/kg, iv; type: ADME, organism-based; set-up: dose 2 mg/kg, route intravenous; details: in vivo, read-out: Vdss
[30] = biological target: Muscarinic acetylcholine receptor M2 (Homo sapiens) (UniProt P08172); test: Inhibition of human M2 receptor at 1 uM relative to control
[31] = biological target: Beta-2 adrenergic receptor (Homo sapiens) (UniProt P07550); test: Inhibition of human beta2 receptor at 1 uM relative to control
Beta-2 adrenergic receptor (Homo sapiens), sequence (P07550 whole entry, looked up): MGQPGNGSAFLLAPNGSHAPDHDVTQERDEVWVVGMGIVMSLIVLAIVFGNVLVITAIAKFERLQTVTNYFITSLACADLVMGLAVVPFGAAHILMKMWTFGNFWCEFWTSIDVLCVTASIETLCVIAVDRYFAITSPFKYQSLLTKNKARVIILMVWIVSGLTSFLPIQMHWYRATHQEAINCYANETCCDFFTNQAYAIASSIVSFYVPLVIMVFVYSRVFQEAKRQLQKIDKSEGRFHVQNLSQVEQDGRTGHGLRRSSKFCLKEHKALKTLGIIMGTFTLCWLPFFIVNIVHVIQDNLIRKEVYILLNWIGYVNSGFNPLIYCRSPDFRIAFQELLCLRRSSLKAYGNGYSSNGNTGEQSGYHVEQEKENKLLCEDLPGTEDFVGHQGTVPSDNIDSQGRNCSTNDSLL

[32] = Fraction unbound in rat plasma; type: ADME, cell-free
[33] = biological target: Neuromedin-K receptor (Homo sapiens) (UniProt P29371); test: Inhibition of human NK3 receptor at 1 uM relative to control
Neuromedin-K receptor (Homo sapiens), sequence (P29371 whole entry): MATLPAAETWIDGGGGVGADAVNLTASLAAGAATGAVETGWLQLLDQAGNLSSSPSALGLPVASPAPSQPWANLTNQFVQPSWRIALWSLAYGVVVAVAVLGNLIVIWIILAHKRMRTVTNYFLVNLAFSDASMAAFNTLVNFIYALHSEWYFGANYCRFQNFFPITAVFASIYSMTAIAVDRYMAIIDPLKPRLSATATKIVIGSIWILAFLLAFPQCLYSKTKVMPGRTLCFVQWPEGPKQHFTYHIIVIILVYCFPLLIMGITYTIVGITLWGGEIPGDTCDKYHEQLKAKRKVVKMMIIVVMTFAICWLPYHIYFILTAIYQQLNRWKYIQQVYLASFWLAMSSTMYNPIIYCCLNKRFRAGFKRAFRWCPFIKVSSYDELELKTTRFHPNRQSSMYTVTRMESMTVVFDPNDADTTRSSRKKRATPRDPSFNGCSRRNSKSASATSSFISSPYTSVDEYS

[34] = biological target: Substance-K receptor (Homo sapiens) (UniProt P21452); test: Inhibition of human NK2 receptor at 1 uM relative to control
Substance-K receptor (Homo sapiens), sequence (P21452 whole entry): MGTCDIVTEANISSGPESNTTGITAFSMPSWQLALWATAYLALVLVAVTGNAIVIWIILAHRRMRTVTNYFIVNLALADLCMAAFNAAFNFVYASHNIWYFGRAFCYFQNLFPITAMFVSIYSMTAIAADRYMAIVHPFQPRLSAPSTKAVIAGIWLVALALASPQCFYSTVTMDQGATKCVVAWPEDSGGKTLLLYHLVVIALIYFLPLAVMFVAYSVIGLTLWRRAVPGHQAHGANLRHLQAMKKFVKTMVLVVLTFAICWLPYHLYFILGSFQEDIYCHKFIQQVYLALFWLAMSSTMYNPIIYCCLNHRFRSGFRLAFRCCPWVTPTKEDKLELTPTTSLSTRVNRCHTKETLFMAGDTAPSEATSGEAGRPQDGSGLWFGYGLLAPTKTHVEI

Rattus norvegicus [35] = test: Free maximum concentration of drug in rat at 0.2 mg/kg, po; type: ADME, organism-based; set-up: dose 0.2 mg/kg, route oral; details: in vivo
[36] = biological target: T1, Bifunctional epoxide hydrolase 2 (Homo sapiens, UniProt P34913)
T1 sequence (P34913 whole entry): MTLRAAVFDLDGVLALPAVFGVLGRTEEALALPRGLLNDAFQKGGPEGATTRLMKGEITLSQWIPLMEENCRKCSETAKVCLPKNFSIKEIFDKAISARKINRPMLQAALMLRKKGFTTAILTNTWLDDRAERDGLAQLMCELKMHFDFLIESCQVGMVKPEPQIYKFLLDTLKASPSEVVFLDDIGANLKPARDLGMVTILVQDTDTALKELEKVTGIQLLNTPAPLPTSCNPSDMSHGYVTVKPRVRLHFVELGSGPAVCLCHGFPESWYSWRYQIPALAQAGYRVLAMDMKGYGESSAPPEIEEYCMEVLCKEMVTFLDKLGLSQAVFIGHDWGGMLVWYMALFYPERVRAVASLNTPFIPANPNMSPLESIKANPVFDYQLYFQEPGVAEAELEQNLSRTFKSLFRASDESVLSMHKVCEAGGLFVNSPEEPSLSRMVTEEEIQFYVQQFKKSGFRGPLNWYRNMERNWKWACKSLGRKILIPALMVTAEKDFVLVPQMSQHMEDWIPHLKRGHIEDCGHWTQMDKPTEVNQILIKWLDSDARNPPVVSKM
Description: Inhibition of human soluble epoxide hydrolase using PHOME as substrate assessed as formation of 6-methoxy-2-naphthaldehyde incubated for 10 mins prior to substrate addition measured with in 30 mins by fluorescence assay

[37] = biological target: 5-hydroxytryptamine receptor 2A (Homo sapiens) (UniProt P28223); test: Inhibition of human 5-HT2A receptor at 1 uM relative to control
Homo sapiens [38] = species: Homo sapiens; test: Inhibition of human GABA receptor at 1 uM relative to control
[39] = biological target: Melatonin receptor type 1A (Homo sapiens) (UniProt P48039); test: Inhibition of human MT1 receptor at 1 uM relative to control
[40] = biological target: D(1A) dopamine receptor (Homo sapiens) (UniProt P21728); test: Inhibition of human dopamine D1 receptor at 1 uM relative to control

Sodium channel protein type 5 subunit alpha, sequence (Q14524 whole entry): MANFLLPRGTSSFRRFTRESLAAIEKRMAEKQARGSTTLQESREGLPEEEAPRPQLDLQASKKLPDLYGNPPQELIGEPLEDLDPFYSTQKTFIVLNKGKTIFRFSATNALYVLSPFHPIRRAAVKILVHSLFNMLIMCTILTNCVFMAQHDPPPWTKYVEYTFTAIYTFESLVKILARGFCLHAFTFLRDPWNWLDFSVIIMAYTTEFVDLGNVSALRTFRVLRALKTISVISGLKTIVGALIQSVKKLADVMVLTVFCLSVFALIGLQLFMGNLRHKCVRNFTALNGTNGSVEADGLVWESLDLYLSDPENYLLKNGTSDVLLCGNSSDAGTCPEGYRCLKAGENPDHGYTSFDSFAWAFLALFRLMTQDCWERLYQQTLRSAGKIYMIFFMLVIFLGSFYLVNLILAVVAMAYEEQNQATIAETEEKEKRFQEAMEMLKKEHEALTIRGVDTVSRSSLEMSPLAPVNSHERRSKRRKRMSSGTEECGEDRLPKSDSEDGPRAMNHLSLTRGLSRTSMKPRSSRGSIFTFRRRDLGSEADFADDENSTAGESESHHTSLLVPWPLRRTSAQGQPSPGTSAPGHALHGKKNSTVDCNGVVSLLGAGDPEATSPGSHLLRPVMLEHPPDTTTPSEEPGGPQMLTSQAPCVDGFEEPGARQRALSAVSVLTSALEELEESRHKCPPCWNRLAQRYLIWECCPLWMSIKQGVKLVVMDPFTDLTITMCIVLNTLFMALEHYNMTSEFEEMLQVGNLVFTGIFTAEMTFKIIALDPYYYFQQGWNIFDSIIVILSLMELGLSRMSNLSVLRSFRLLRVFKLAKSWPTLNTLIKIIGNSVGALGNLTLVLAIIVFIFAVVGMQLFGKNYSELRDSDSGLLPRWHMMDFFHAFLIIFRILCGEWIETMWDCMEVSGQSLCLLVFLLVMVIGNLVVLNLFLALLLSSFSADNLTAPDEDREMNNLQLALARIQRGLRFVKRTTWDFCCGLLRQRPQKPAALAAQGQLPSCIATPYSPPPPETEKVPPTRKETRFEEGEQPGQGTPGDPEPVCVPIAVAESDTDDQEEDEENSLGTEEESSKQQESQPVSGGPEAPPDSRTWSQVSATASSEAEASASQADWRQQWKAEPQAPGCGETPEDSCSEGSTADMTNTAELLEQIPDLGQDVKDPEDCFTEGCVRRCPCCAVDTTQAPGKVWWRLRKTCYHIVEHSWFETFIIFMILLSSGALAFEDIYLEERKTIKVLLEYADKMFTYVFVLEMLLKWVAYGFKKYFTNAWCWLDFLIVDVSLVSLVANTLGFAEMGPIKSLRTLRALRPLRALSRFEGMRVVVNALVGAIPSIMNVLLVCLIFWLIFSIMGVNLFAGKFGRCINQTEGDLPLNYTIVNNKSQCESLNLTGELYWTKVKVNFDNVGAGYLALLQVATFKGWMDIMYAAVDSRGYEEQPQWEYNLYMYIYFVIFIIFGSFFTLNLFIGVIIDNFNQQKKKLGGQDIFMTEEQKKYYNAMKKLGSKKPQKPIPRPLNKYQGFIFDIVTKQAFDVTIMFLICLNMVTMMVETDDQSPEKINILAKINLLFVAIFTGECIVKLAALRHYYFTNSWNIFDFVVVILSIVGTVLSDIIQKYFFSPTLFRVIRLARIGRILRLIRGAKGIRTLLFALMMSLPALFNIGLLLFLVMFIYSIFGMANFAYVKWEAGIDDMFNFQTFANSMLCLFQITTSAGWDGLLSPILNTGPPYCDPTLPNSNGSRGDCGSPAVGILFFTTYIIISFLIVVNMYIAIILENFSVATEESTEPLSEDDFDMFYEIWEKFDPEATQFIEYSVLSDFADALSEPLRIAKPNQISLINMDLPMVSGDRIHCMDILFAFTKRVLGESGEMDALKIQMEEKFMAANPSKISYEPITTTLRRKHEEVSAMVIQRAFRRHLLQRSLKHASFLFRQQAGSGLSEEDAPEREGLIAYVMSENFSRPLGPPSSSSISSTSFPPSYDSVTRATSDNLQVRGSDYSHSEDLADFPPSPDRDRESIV

## CNc1nc(C)nc(N2CCC(C(=O)NCc3ccc(Br)cc3OC(F)(F)F)CC2)n1
[1]
  IC50: > 10 µM
Homo sapiens [2]
  inhibition: < 50%
Rattus norvegicus [3]
  fCmax: 3 nM
[4]
  inhibition: < 50%
[5]
  inhibition: < 50%
[6]
  inhibition: < 50%
[7]
  inhibition: < 50%
Homo sapiens [8]
  inhibition: < 50%
[9]
  inhibition: < 50%
Homo sapiens [10]
  inhibition: < 50%
[11]
  inhibition: < 50%
[12]
  inhibition: < 50%
[13]
  bioavailability: 100%
[14]
  inhibition: < 50%
[15]
  half-life: 276 min
[16]
  inhibition: < 50%
[17]
  inhibition: < 50%
Rattus norvegicus [18]
  inhibition (INH): 50%
[19]
  Cmax: 16 nM
Homo sapiens [20]
  inhibition: < 50%
[21]
  clearance: 12 mL/min/kg
[22]
  inhibition: < 50%
[23]
  inhibition: < 50%
[24]
  inhibition: < 50%
[25]
  inhibition: < 50%
[26]
  inhibition: < 50%
Cytochrome P450 2C8
  IC50: > 30 µM
Epoxide hydrolase 1
  IC50: > 50 µM
[27]
  IC50: > 10 µM
[28]
  inhibition: < 50%
[29]
  Vd: 2.1 L/kg
[30]
  inhibition: < 50%
[31]
  inhibition: < 50%
[32]
  fraction unbound: 0.015
[33]
  inhibition: < 50%
[34]
  inhibition: < 50%
Rattus norvegicus [35]
  fCmax: 0.25 nM
[36]
  IC50: 0.5 nM
[37]
  inhibition: < 50%
Homo sapiens [38]
  inhibition: < 50%
[39]
  inhibition: < 50%
[40]
  inhibition: < 50%
